Source: patent publication US10925856B2, “Methods and compositions involving bucindolol for the treatment of atrial fibrillation” (priority 2018, dated 2021)

How the values were obtained:
[1] = Systolic blood pressure and heart rate by scheduled visit; format: in vivo, human
Source text: Block is defined as the first of any of the following: 1) 3rd degree heart block (complete heart block); 2) any 2nd degree heart block with the presence of symptoms attributable to, and temporally correlated with the occurrence of heart block which include any of the following: Near-fainting or fainting (syncope)/Dizziness; Weakness or Fatigue; Shortness of breath; Chest pain; or 3) 2nd or 3rd degree heart block requiring implantation of a permanent pacemaker (with or without defibrillator). • Data source: • CVEVENT and AE eCRF forms. • Overall incidence and severity of treatment-emergent AEs/SAEs over time during the Total Study Period. Also events associated with device implantation. […] The AEs of special interest will be tabulated according to the following characteristics. • Development of treatment-emergent neoplastic conditions. • Progression or worsening of pre-study neoplastic conditions. • Progression or worsening of treatment-emergent neoplastic conditions. • Data source: • AE, NEOPLHX and NEOPLAS eCRF forms. • Clinical Chemistry and Hematology. • Visit collection: screen, start of follow-up Week 0 (protocol versions 1 and 2), Week 4 (protocol versions 3 and 4), Week 12 (protocol versions 3 and 4), Week 24, every 24 weeks during extension, end of treatment and end of study. […] Randomization Visit measurement prior to first dose will serve as the baseline. Will be analyzed at Week 0, 4, 12 and 24 visits as well as end of treatment and end of study. • Change from baseline to each analysis visit will be calculated and analyzed with descriptive statistics. • The numbers and percentages of patients with QTc increase from baseline exceeding 60 ms at any time point during the study. • Data source: • ECG eCRF form. • Vital signs and weight (data source: VITALS eCRF form). • Measured at every in-clinic visit. Randomization Visit measurement prior to first dose will serve as the baseline. Will be analyzed at Week 0, 4, 12 and 24 visits as well as end of treatment and end of study. • Change from baseline to each analysis visit will be calculated and analyzed with descriptive statistics. • Data source: • VITALS eCRF form. • Proportion of patients attaining target study drug dose during the Drug Titration Period. Will be calculated for all patients, those receiving β-blocker therapy prior to randomization and those not previously receiving β-blocker therapy. • Data Sources: • VISREC and DRUGLOG eCRF forms.

[2] = in vivo; cited from earlier work
[3] = test system: plasma norepinephrine; test: Plasma norepinephrine (HPLC with electrochemical detection); conditions: for Norepinephrine, ΔWeek 12 Mean ± SEM / Norepinephrine, ΔWeek 12 Median / Norepinephrine, ΔWeek 24 Mean ± SEM / Norepinephrine, ΔWeek 24 Median: change from baseline
[4] = Europe excluding Hungary (n = 48)

COCCc1ccc(OCC(O)CNC(C)C)cc1 (stereo not shown) [metoprolol, metoprolol succinate, reference compound]
Heart rate reduction ([1]; 4, 12 and 24 weeks): greater heart rate reduction | Heart Rate, Baseline Mean ± SEM ([1]; in vivo): 76.0 ± 1.5 bpm | Heart Rate, Baseline Min, Max ([1]; in vivo): 43.0, 119 | Systolic Blood Pressure, Baseline Mean ± SEM ([1]; in vivo): 121.8 ± 1.4 mmHg | Systolic Blood Pressure, Baseline Min, Max ([1]; in vivo): 90.0, 149 | Bioavailability [2]: approximately 50% | Plasma norepinephrine, Week 4 Mean ([3]; Canada): 613 pg/mL | Plasma norepinephrine, Week 4 Median ([3]; Canada): 605 pg/mL | Plasma norepinephrine, change from baseline to Week 4, Mean ±SEM ([3]; Canada): -97 pg/mL | Plasma norepinephrine, change from baseline to Week 4, Median ([3]; Canada): -59 pg/mL | Norepinephrine, Baseline Mean ± SD ([3]; Canada (n = 59)): 674 ± 429 pg/mL | Norepinephrine, Baseline Median ([3]; Canada (n = 59)): 541 pg/mL | Norepinephrine, Week 12 Mean ± SD ([3]; Canada (n = 59)): 577 ± 273 pg/mL | Norepinephrine, Week 12 Median ([3]; Canada (n = 59)): 563 pg/mL | Norepinephrine, Week 24 Mean ± SD ([3]; Canada (n = 59)): 722 ± 303 pg/mL | Norepinephrine, Week 24 Median ([3]; Canada (n = 59)): 690 pg/mL | Change in NE at Week 4, median (Q1, Q3) ([3]; Entire Cohort): −10 (198,121) pg/ml | Plasma norepinephrine, Week 4 Mean ([3]; Entire Cohort): 617 pg/mL | Plasma norepinephrine, Week 4 Median ([3]; Entire Cohort): 570 pg/mL | Plasma norepinephrine, change from baseline to Week 4, Mean ±SEM ([3]; Entire Cohort): 36 ± 32 pg/mL | Plasma norepinephrine, change from baseline to Week 4, Median ([3]; Entire Cohort): -10 pg/mL | Norepinephrine, Baseline Mean ± SD ([3]; Entire Cohort (n = 267)): 664 ± 359 pg/mL | Norepinephrine, Baseline Median ([3]; Entire Cohort (n = 267)): 590 pg/mL | Norepinephrine, Week 12 Mean ± SD ([3]; Entire Cohort (n = 267)): 605 ± 266 pg/mL | Norepinephrine, Week 12 Median ([3]; Entire Cohort (n = 267)): 566 pg/mL | Norepinephrine, Week 24 Mean ± SD ([3]; Entire Cohort (n = 267)): 690 ± 414 pg/mL | Norepinephrine, Week 24 Median ([3]; Entire Cohort (n = 267)): 586 pg/mL | Plasma norepinephrine, change from baseline to Week 4, Mean ±SEM ([3]; Entire Cohort, listed as Met): -36 pg/mL | Plasma norepinephrine, Week 4 Mean ([3]; Europe excluding Hungary): 676 pg/mL | Plasma norepinephrine, Week 4 Median ([3]; Europe excluding Hungary): 612 pg/mL | Plasma norepinephrine, change from baseline to Week 4, Mean ±SEM ([3]; Europe excluding Hungary): -18 pg/mL | Plasma norepinephrine, change from baseline to Week 4, Median ([3]; Europe excluding Hungary): -12 pg/mL | Norepinephrine, Baseline Mean ± SD [3, 4]: 675 ± 250 pg/mL | Norepinephrine, Baseline Median [3, 4]: 592 pg/mL | Norepinephrine, Week 12 Mean ± SD [3, 4]: 640 ± 283 pg/mL | Norepinephrine, Week 12 Median [3, 4]: 614 pg/mL | Norepinephrine, Week 24 Mean ± SD [3, 4]: 904 ± 348 pg/mL | Norepinephrine, Week 24 Median [3, 4]: 924 pg/mL | Plasma norepinephrine, Week 4 Mean ([3]; Hungary): 530 pg/mL | Plasma norepinephrine, Week 4 Median ([3]; Hungary): 460 pg/mL | Plasma norepinephrine, change from baseline to Week 4, Mean ±SEM ([3]; Hungary): -35 pg/mL | Plasma norepinephrine, change from baseline to Week 4, Median ([3]; Hungary): -70 pg/mL | Norepinephrine, Baseline Mean ± SD ([3]; Hungary (n = 33)): 627 ± 258 pg/mL | Norepinephrine, Baseline Median ([3]; Hungary (n = 33)): 571 pg/mL | Norepinephrine, Week 12 Mean ± SD ([3]; Hungary (n = 33)): 716 ± 308 pg/mL | Norepinephrine, Week 12 Median ([3]; Hungary (n = 33)): 590 pg/mL | Norepinephrine, Week 24 Mean ± SD ([3]; Hungary (n = 33)): 716 ± 301 pg/mL | Norepinephrine, Week 24 Median ([3]; Hungary (n = 33)): 668 pg/mL | Plasma norepinephrine, Week 4 Mean ([3]; U.S.): 616 pg/mL | Plasma norepinephrine, Week 4 Median ([3]; U.S.): 556 pg/mL | Plasma norepinephrine, change from baseline to Week 4, Mean ±SEM ([3]; U.S.): -18 pg/mL | Plasma norepinephrine, change from baseline to Week 4, Median ([3]; U.S.): +29 pg/ml | Norepinephrine, Baseline Mean ± SD ([3]; U.S. (n = 127)): 664 ± 386 pg/mL | Norepinephrine, Baseline Median ([3]; U.S. (n = 127)): 599 pg/mL | Norepinephrine, Week 12 Mean ± SD ([3]; U.S. (n = 127)): 576 ± 246 pg/mL | Norepinephrine, Week 12 Median ([3]; U.S. (n = 127)): 560 pg/mL | Norepinephrine, Week 24 Mean ± SD ([3]; U.S. (n = 127)): 639 ± 472 pg/mL | Norepinephrine, Week 24 Median ([3]; U.S. (n = 127)): 519 pg/mL | Within group NE change ([3]; Week 4, any of the regions): not associated with a within group NE change | Norepinephrine, ΔWeek 12 Mean ± SEM ([3]; Canada (n = 59)): -111 ± 57 pg/mL | Norepinephrine, ΔWeek 12 Median ([3]; Canada (n = 59)): -85 pg/mL | Norepinephrine, ΔWeek 24 Mean ± SEM ([3]; Canada (n = 59)): 18 ± 75 pg/mL | Norepinephrine, ΔWeek 24 Median ([3]; Canada (n = 59)): -10 pg/mL | Norepinephrine, ΔWeek 12 Mean ± SEM ([3]; Entire Cohort (n = 267)): -64 ± 30 pg/mL | Norepinephrine, ΔWeek 12 Median ([3]; Entire Cohort (n = 267)): -57 pg/mL | Norepinephrine, ΔWeek 24 Mean ± SEM ([3]; Entire Cohort (n = 267)): 2 ± 33 pg/mL | Norepinephrine, ΔWeek 24 Median ([3]; Entire Cohort (n = 267)): -24 pg/mL | Norepinephrine, ΔWeek 12 Mean ± SEM [3, 4]: -52 ± 65 pg/mL | Norepinephrine, ΔWeek 12 Median [3, 4]: -76 pg/mL | Norepinephrine, ΔWeek 24 Median [3, 4]: 232 pg/mL | Norepinephrine, ΔWeek 12 Mean ± SEM ([3]; Hungary (n = 33)): 144 ± 89 pg/mL | Norepinephrine, ΔWeek 12 Median ([3]; Hungary (n = 33)): 37 pg/mL | Norepinephrine, ΔWeek 24 Mean ± SEM ([3]; Hungary (n = 33)): 148 ± 336 pg/mL | Norepinephrine, ΔWeek 24 Median ([3]; Hungary (n = 33)): -42 pg/mL | Norepinephrine, ΔWeek 12 Mean ± SEM ([3]; U.S. (n = 127)): -100 ± 43 pg/mL | Norepinephrine, ΔWeek 12 Median ([3]; U.S. (n = 127)): -66 pg/mL | Norepinephrine, ΔWeek 24 Mean ± SEM ([3]; U.S. (n = 127)): -46 ± 40 pg/mL | Norepinephrine, ΔWeek 24 Median ([3]; U.S. (n = 127)): -46 pg/mL | Reduction in NE ([3]; week 12, entire cohort): 57 pg/mL
